According to ChEMBL document CHEMBL1641422, “Bitriazolyl acyclonucleosides synthesized via Huisgen reaction using internal alkynes show antiviral activity against tobacco mosaic virus” (2011):

Tested on: Tobacco mosaic virus
Assay: Antiviral activity against Tobacco mosaic virus after 72 hrs by half-leaf juice rubbing method
Format: functional
Set-up: concentration or dose not given beside the values

| SMILES | Activity [%] |
| --- | --- |
| NC(=O)c1nc(-c2nn[nH]c2-c2ccc(F)cc2)n(COCCO)n1 | 29 |
| NC(=O)c1nc(-c2nn[nH]c2-c2cccc(C(F)(F)F)c2)n(COCCO)n1 | 16 |
| NC(=O)c1ncn([C@@H]2O[C@H](CO)[C@@H](O)[C@H]2O)n1 [RIBAVIRIN] | 39 |
| NC(=O)c1nc(-c2nn[nH]c2-c2cccs2)n(COCCO)n1 | 14 |
| COc1ccc(-c2[nH]nnc2-c2nc(C(N)=O)nn2COCCO)cc1 | 39 |
| NC(=O)c1nc(-c2nn[nH]c2-c2ccc(C(F)(F)F)cc2)n(COCCO)n1 | 30 |
| CCCCCc1ccc(-c2[nH]nnc2-c2nc(C(N)=O)nn2COCCO)cc1 | 44 |
| NC(=O)c1nc(-c2nn[nH]c2-c2ccccc2)n(COCCO)n1 | 36 |
| NC(=O)c1nc(-c2nn[nH]c2-c2ccccc2C(F)(F)F)n(COCCO)n1 | 17 |
| NC(=O)c1nc(-c2nn[nH]c2C2=CCCCC2)n(COCCO)n1 | 23 |
| CCCCCc1[nH]nnc1-c1nc(C(N)=O)nn1COCCO | 34 |
| CCCCc1ccc(-c2[nH]nnc2-c2nc(C(N)=O)nn2COCCO)cc1 | 22 |
| Cc1ccc(-c2[nH]nnc2-c2nc(C(N)=O)nn2COCCO)cc1 | 28 |
